From patent publication EP2014281A1, “Use of inhibitors of sirtuins and/or ampk for the preparation of a medicament for the treatment of polyalanine diseases” (INSTITUT NATIONAL DE LA SANTE ET DE LA RECHERCHE MEDICALE …, priority 2007, dated 2009)

Tests used:
[1] = test system: C. elegans transgenics expressing human PABPN1 with 10 or 13 Alas; test: Muscle nuclei loss (MNL) drug assay in transgenic nematodes, counting GFP positive muscle cell nuclei; type: in vivo; settings: for muscle nuclei loss (MNL) in controls: PABPN1-A10 / control animals; for genetic dependence of the effect on MNL: PABPN1-A13 animals with null mutation of sir-2.1 (ok434), daf-16 (mu86) or aak-2 (ok524); for muscle nuclei loss (MNL) caused by PABPN1-A13 expression: PABPN1-A13 animals, 65 hours at 20°C in liquid culture, maximal achievable rescue 28 %
Experimental: Analysis of muscle cells. Muscle cells in transgenic hermaphrodites were examined for loss of nuclei through counting GFP positive cells. Percent rescue was calculated as ((test - control)/control*100). Muscle cells in transgenic hermaphrodites were examined for PABPN1 expression through fluorescent microscopy. Whole animals were permeabilized and stained with the PABPN1 antiserum VEADa-14 (Centre de Recherche du CHUM, Montreal; 1:50), and fluorescent microscopy was conducted on a Zeiss microscope (Axioplan Imaging II). Observations of the structure of body wall muscles in young adult transgenics after Phalloidin-Rhodamin (FluoProbes) staining were performed as previously described^51. ANOVA tests and Tukey's Multiple Comparison Test were used for statistics.
(§1) Drug assays. Synchronized populations of L1 larvae expressing GFP and PABPN1 with 10 or 13 Alas were obtained by hypochlorite extraction. To test for muscle nuclei loss, animals were grown in 96-well microtiter plates in 50 µl liquid culture medium with sodium butyrate, resveratrol, sirtinol or splitomicin for 65 hours at 20°C, transferred to agarose pads on slides, and scored for cell nuclei loss at 10X-63X using a Zeiss fluorescence microscope (Axioplan Imaging II). 60 worms were scored per point and three independent assays performed. To test for motility, the synchronized L1 larvae were grown on NGM plates containing drugs until they became 1-5 day old adults. Animals were transferred to new plates every other day to keep them separate from progeny, then transferred to confluent OP-50.1 bacteria test plates and assessed for the number of whole body bends as described above (see Motility assays).

[2] = test system: C. elegans transgenics expressing human PABPN1 with 10 or 13 Alas; test: Motility drug assay, number of whole body bends; type: in vivo; settings: for genetic dependence of the effect on abnormal motility: PABPN1-A13 animals with null mutation of sir-2.1 (ok434), daf-16 (mu86) or aak-2 (ok524); for abnormal motility (frequency of body bends) produced by mutant PABPN1: PABPN1-A13 animals, sirtinol and splitomicin at day 5, resveratrol at day 3 of adulthood; for motility in controls: PABPN1-A10 / control animals
Experimental: Motility assays. 1-5 day old adult hermaphrodites were laid on confluent OP-50-1. The animals were then scored immediately for whole body bends for a duration of 20 seconds as previously described^23, or photos of the tracks were taken using a 2,5X objective on a Zeiss microscope and their amplitudes measured using the Meta View software. 100 animals were scored per experiment and three independent assays performed. Percent rescue of the body bends phenotype was calculated as ((control - test)/control*100) and percent rescue of the sinusoid wave phenotype as ((test - control)/control*100). ANOVA tests and Tukey's Multiple Comparison Tests were used for statistics.
as §1

[3] = test system: COS-7 cells overexpressing GFP-PABPN1 fusion proteins with 0, 10, or 17 Alas; test: Cell survival by live microscopy of GFP positive cells; type: cell-based; settings: day 5; 0.5 µM resveratrol, 2.5 µM sirtinol
Experimental: (§2) Cell culture and transfection. Twenty-four hours before transfection, COS-7 cells were seeded in Dulbeco's modified Eagle's medium (DMEM) containing 10% fetal calf serum at a concentration of 2 x 10^5 cells per well in 12-well plates suited for the automated live microscopy. The cells were transfected with plasmid DNA (1 µg) pre-complexed with the Plus reagent and diluted in Lipofectamine reagent according to the manufacturer's instructions. To check the protein expression before and after the drug treatment, parallel plates were prepared for Western blotting.
(§3) Drug treatment. Resveratrol and Sirtinol were dissolved in DMSO. In the initial cell treatment experiments, we performed dose-response experiments, using non-transfected cells, to define the most appropriate doses to be used for the drugs. […] The drugs or vehicle as a control were applied on transfected cells 24 h post-transfection. Cells (in the 12-well plate) were then incubated for 24 h before analysis using a Leica automated microscope stage.
Assessment of cell survival. Cell survival was assessed using live microscopy as previously described^12. Briefly, 12-well plates containing transfected cells treated or not treated with drugs were placed on a live stage microscope equipped with a digital camera, CO2 incubation chamber, and a motorized X-Y-axis stage and connected to the Openlab software (Improvision). The microscopic robotic stage allows parallel tracking of multiple fields, both within a single well and in multiple wells. […] The system was set to memorize three different fields of cells (from each separate well) and control the stage return to the same position at pre-fixed intervals. The microscope allowed us to return back to the same point and count the same cells in the field. Cell survival was monitored every 24 h for five consecutive days, with Day 1 corresponding to 24 h post-transfection before the drug treatment. On average, 150 cells per field per construct were counted. Cell viability was assayed by analysis of GFP positive cells. The average of cell survival of each group of cells was scored for the three different chosen fields and percent rescue calculated as ((test - control)/control*100). Three independent experiments were performed. ANOVA tests and Tukey's Multiple Comparison Test were used for statistics.

non-transfected cells = test: Dose-response experiments for cell toxicity; type: cell-based; settings: five days, 0.5 µM resveratrol, 2.5 µM sirtinol
Experimental: as §3

[4] = test system: COS-7 cells transfected with normal (10 Alas) and mutant (17 Alas) PABPN1; test: Histone acetylation analysis by western blot; type: cell-based; settings: COS-7 cells expressing normal or mutant PABPN1, 500 µM or 5 mM for the last 24h
Experimental: as §2
Histone acetylation analysis. COS-7 cells transfected with normal (10 Alas) and mutant (17 Alas) PABPN1 cDNAs were plated for 48h and treated for the last 24h with 500 µM or 5 mM sodium butyrate. Controls included non-butyrate-treated cells. Cells were lysed in 10 mM Tris, 50 mM sodium bisulfite, 1% triton X-100, 10 mM magnesium chloride, 8.6% sucrose, pH 6.5 and a cocktail of proteases inhibitors for 10 min. Proteins were extracted under acidic conditions as described^53. Ten micrograms of whole cell extract were analysed by western blot. […] Signals were quantified using NIH IMAGE 1.62 and t tests used for statistical analysis.

| Structure (SMILES) | muscle nuclei loss (MNL) in controls [1] | genetic dependence of the effect on MNL [1] | muscle nuclei loss (MNL) caused by PABPN1-A13 expression [1] | genetic dependence of the effect on abnormal motility [2] | abnormal motility (frequency of body bends) produced by mutant PABPN1 [2] | cell survival in cells overexpressing GFP-PABPN1 with 0 and 10 Alas [3] | cell survival in mutant PABPN1-A17 cells [3] | cell toxicity (non-transfected cells) | motility in controls [2] | level of acetylation of histone H3 [4] | level of acetylation of histone H4 [4] |
| --- | --- | --- | --- | --- | --- | --- | --- | --- | --- | --- | --- |
| Oc1ccc(C=Cc2cc(O)cc(O)c2)cc1 [resveratrol] | no effect in PABPN1-A10 animals | mediated by sir-2.1 and aak-2 | enhanced MNL | daf-16 independent and sir-2.1 and aak-2 dependent | enhancement of abnormal motility | no effects | slightly decreased cell survival | did not cause cell toxicity |  |  |  |
| CC(NC(=O)c1ccccc1/N=C/c1c(O)ccc2ccccc12)c1ccccc1 (stereo not shown) [sirtinol, 2-[(2-Hydroxynaphthalen-1-yl-methylene)amino]-N-(1-phenethyl)benzamide] |  | dependent on sir-2.1, daf-16 but not aak-2 | dose-dependent rescue of MNL | dependent on sir-2.1 and daf-16 | rescued abnormal motility | no effects | strongly enhanced cell survival |  | no effect detected |  |  |
| CCCC(=O)[O-].[Na+] [sodium butyrate] |  |  | strong (the maximal achievable rescue is 28 %) rescue |  |  |  |  |  |  | increased | increased |
| O=C1CCc2c(ccc3ccccc23)O1 [splitomicin, 1,2-Dihydro-3H-naphtho[2,1-b]pyran-3-one] | no effect in controls |  | rescued the MNL |  | rescued the MNL and abnormal motility |  |  |  | no effect in controls |  |  |
